Source: the supplement of paper PMC10307832

Experiments:
Assay in all cases: relative viability (nuclei count vs DMSO), 5 days (fraction); higher = more cells survive
AZ505 + OSI-027 = compound: C1CCC(CC1)N(CCNCCC2=C3C(=C(C=C2)O)NC(=O)CO3)C(=O)CCNCCC4=CC(=C(C=C4)Cl)Cl [AZ505] + COc1cccc2cc(-c3nc([C@H]4CC[C@H](C(=O)O)CC4)n4ncnc(N)c34)[nH]c12 [OSI-027] (partner 0.5 µM)
In short: (§1)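 Lung cancer cell lines in 1536-well plates were dosed by pin tool the day after seeding, either with one drug alone or with a fixed anchor-drug dose plus five library-drug doses (not always all listed) in √10 steps. After 5 days, cells were fixed and their nuclei stained in one step (final 0.05% Triton X-100, 1% formaldehyde, 1 ug/ml Hoechst), then counted on 4× images. Relative viability is the nuclei count in treated wells divided by that in vehicle wells. Values are medians of duplicate plates.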

AZ505 + Tozasertib = compound: C1CCC(CC1)N(CCNCCC2=C3C(=C(C=C2)O)NC(=O)CO3)C(=O)CCNCCC4=CC(=C(C=C4)Cl)Cl [AZ505] + Cc1cc(Nc2cc(N3CCN(C)CC3)nc(Sc3ccc(NC(=O)C4CC4)cc3)n2)n[nH]1 [Tozasertib] (partner 0.1 µM)
In short: as §1

AZ505 + Dasatinib = compound: C1CCC(CC1)N(CCNCCC2=C3C(=C(C=C2)O)NC(=O)CO3)C(=O)CCNCCC4=CC(=C(C=C4)Cl)Cl [AZ505] + Cc1nc(Nc2ncc(C(=O)Nc3c(C)cccc3Cl)s2)cc(N2CCN(CCO)CC2)n1 [Dasatinib] (partner 0.075 µM)
In short: as §1

Dactolisib + Phenformin = compound: Cn1c(=O)n(-c2ccc(C(C)(C)C#N)cc2)c2c3cc(-c4cnc5ccccc5c4)ccc3ncc21 [Dactolisib] + N=C(N)NC(=N)NCCc1ccccc1 [Phenformin] (partner 250 µM)
In short: as §1

## UMC-11
AZ505 + OSI-027; first compound 0.08 µM
  relative viability: 0.413
AZ505 + OSI-027; first compound 0.253 µM
  relative viability: 0.53
AZ505 + OSI-027; first compound 0.8 µM
  relative viability: 0.452
AZ505 + OSI-027; first compound 2.53 µM
  relative viability: 0.476
AZ505 + OSI-027; first compound 8 µM
  relative viability: 0.492
AZ505 + Tozasertib; first compound 0.08 µM
  relative viability: 0.189
AZ505 + Tozasertib; first compound 0.253 µM
  relative viability: 0.206
AZ505 + Tozasertib; first compound 0.8 µM
  relative viability: 0.188
AZ505 + Tozasertib; first compound 2.53 µM
  relative viability: 0.196
AZ505 + Tozasertib; first compound 8 µM
  relative viability: 0.205
AZ505 + Dasatinib; first compound 0.08 µM
  relative viability: 0.444
AZ505 + Dasatinib; first compound 0.253 µM
  relative viability: 0.459
AZ505 + Dasatinib; first compound 0.8 µM
  relative viability: 0.458
AZ505 + Dasatinib; first compound 2.53 µM
  relative viability: 0.472
AZ505 + Dasatinib; first compound 8 µM
  relative viability: 0.658
Dactolisib + Phenformin; first compound 0.002 µM
  relative viability: 0.326
Dactolisib + Phenformin; first compound 0.006325 µM
  relative viability: 0.326
Dactolisib + Phenformin; first compound 0.02 µM
  relative viability: 0.315
Dactolisib + Phenformin; first compound 0.06325 µM
  relative viability: 0.218
Dactolisib + Phenformin; first compound 0.2 µM
  relative viability: 0.22
